# From ChEMBL document CHEMBL1150741, “Polygodial, an antifungal potentiator” (1988)
# Active and inactive are the calls of the source. No cut-off for these calls is given here. Starred links: 1 amine or outer side, 2 acyl side, 3 side chain; linkers in the order of their positions; H or OH if unused. Positions of bridges follow the written chain, without caps; N, C: chain ends. Non-standard residues stand in square brackets, D forms with d. Residues, ends and D or L forms follow the SMILES beside them. Chains are numbered I, II in the order given. Actinocin(9to1) = Cc1c2oc3c(C)ccc(C(=O)[*:1])c3nc-2c(C(=O)[*:2])c(N)c1=O; NMeV = CN[C@H](C(=O)O)C(C)C; Sar = CNCC(=O)O
# Assays:
# Sclerotinia = test: Antimicrobial activity against Sclerotinia libertiana SS after 2 days; format: functional; details: 48 h
# Staphylococcus aureus = test: Antimicrobial activity against Staphylococcus aureus NCTC 8530 after 2 days; format: functional; details: NCTC 8530, 48 h
# Cyberlindnera jadinii [1] = test: Antimicrobial activity against Candida utilis ATCC 42402 after 2 days; format: functional; details: for MIC: Williopsis jadinii, ATCC 42402, 48 h
# Bacillus subtilis = test: Antimicrobial activity against Bacillus subtilis K-49 after 2 days; format: functional; details: K-49, 48 h
# Penicillium crustosum = test: Antimicrobial activity against Penicillium crustosum Thom after 2 days; format: functional; details: 48 h
# [2] = tested on: Schizosaccharomyces pombe; test: Antimicrobial activity against Schizosaccharomyces pombe IFO 0342 after 2 days; format: functional; details: IFO 0342, 48 h
# Saccharomyces cerevisiae [3] = test: Antimicrobial activity against Saccharomyces cerevisiae IFO 0203 after 2 days; format: functional; details: IFO 0203, 48 h
# Micrococcus luteus = test: Antimicrobial activity against Micrococcus lysodeikticus IFO 3333 after 2 days; format: functional; details: IFO 3333, 48 h
# Proteus vulgaris = test: Antimicrobial activity against Proteus vulgaris IAM 12003 after 2 days; format: functional; details: IAM 12003, 48 h
# [4] = tested on: Rhizopus microsporus var. chinensis; test: Antimicrobial activity against Rhizopus chinensis IFO 4745 after 2 days; format: functional; details: IFO 4745, 48 h
# Wickerhamomyces anomalus [5] = test: Antimicrobial activity against Hansenula anomala IFO 0136 after 2 days; format: functional; details: IFO 0136, 48 h
# Pseudomonas aeruginosa = test: Antimicrobial activity against Pseudomonas aeruginosa IAM 1007 after 2 days; format: functional; details: IAM 1007, 48 h
# Aspergillus niger = test: Antimicrobial activity against Aspergillus niger ATCC 6275 after 2 days; format: functional; details: ATCC 6275, 48 h
# Mucor mucedo = test: Antimicrobial activity against Mucor mucedo IFO 7684 after 2 days; format: functional; details: IFO 7684, 48 h
# Escherichia coli = test: Antimicrobial activity against Escherichia coli IFO 3545 after 2 days; format: functional; details: IFO 3545, 48 h
# [6] = tested on: Schizosaccharomyces pombe; test: Antifungal activity against Schizosaccharomyces pombe IFO 0342 in Henneberg medium at pH 5.2 after 2 days; format: functional; details: IFO 0342, 48 h
# Cyberlindnera jadinii [7] = test: Antifungal activity against Candida utilis ATCC 42402 in Henneberg medium at pH 7 after 2 days; format: functional; details: Williopsis jadinii, ATCC 42402, 48 h
# Saccharomyces cerevisiae [8] = test: Antifungal activity against Saccharomyces cerevisiae IFO 0203 in Henneberg medium at pH 5.2 after 2 days; format: functional; details: IFO 0203, 48 h
# Wickerhamomyces anomalus [9] = test: Antifungal activity against Hansenula anomala IFO 0136 in Malt Wort medium at pH 5 after 2 days; format: functional; details: IFO 0136, 48 h
# Saccharomyces cerevisiae [10] = test: Antifungal activity against Saccharomyces cerevisiae IFO 0203 assessed as fetal loss of cellular constituents at 50 ug/mL after 10 mins by microscopy; format: functional, organism-based
# Saccharomyces cerevisiae [11] = test: Antifungal activity against Saccharomyces cerevisiae IFO 0203 assessed as leakage of cellular constituents at 1 to 10 ug/mL by folin reagent method; format: functional, organism-based
# Cyberlindnera jadinii [12] = test: Antifungal activity against Candida utilis ATCC 42402 in Malt Wort medium at pH 5 after 2 days; format: functional; details: Williopsis jadinii, ATCC 42402, 48 h
# Saccharomyces cerevisiae [13] = test: Antifungal activity against Saccharomyces cerevisiae IFO 0203 assessed as leakage of cellular constituents at 1 to 10 ug/mL by phenol-sulphuric acid reagent method; format: functional, organism-based
# [14] = tested on: Schizosaccharomyces pombe; test: Antifungal activity against Schizosaccharomyces pombe IFO 0342 in Henneberg medium at pH 7 after 2 days; format: functional; details: IFO 0342, 48 h
# [15] = tested on: Schizosaccharomyces pombe; test: Antifungal activity against Schizosaccharomyces pombe IFO 0342 in Henneberg medium at pH 3.1 after 2 days; format: functional; details: IFO 0342, 48 h
# Wickerhamomyces anomalus [16] = test: Antifungal activity against Hansenula anomala IFO 0136 in Henneberg medium at pH 3.1 after 2 days; format: functional; details: IFO 0136, 48 h
# Saccharomyces cerevisiae [17] = test: Antifungal activity against Saccharomyces cerevisiae IFO 0203 in Malt Wort medium at pH 5 after 2 days; format: functional; details: IFO 0203, 48 h
# Saccharomyces cerevisiae [18] = test: Antifungal activity against Saccharomyces cerevisiae IFO 0203 in Henneberg medium at pH 3.1 after 2 days; format: functional; details: IFO 0203, 48 h
# [19] = tested on: Schizosaccharomyces pombe; test: Antifungal activity against Schizosaccharomyces pombe IFO 0342 in Malt Wort medium at pH 5 after 2 days; format: functional; details: IFO 0342, 48 h
# Wickerhamomyces anomalus [20] = test: Antifungal activity against Hansenula anomala IFO 0136 in Henneberg medium at pH 7 after 2 days; format: functional; details: IFO 0136, 48 h
# Cyberlindnera jadinii [21] = test: Antifungal activity against Candida utilis ATCC 42402 in Henneberg medium at pH 5.2 after 2 days; format: functional; details: Williopsis jadinii, ATCC 42402, 48 h
# Saccharomyces cerevisiae [22] = test: Antifungal activity against Saccharomyces cerevisiae IFO 0203 assessed as organelle disorganization at 50 ug/mL after 10 mins by microscopy; format: functional, organism-based
# Wickerhamomyces anomalus [23] = test: Antifungal activity against Hansenula anomala IFO 0136 in Henneberg medium at pH 5.2 after 2 days; format: functional; details: IFO 0136, 48 h
# Saccharomyces cerevisiae [24] = test: Antifungal activity against Saccharomyces cerevisiae IFO 0203 in Henneberg medium at pH 7 after 2 days; format: functional; details: IFO 0203, 48 h
# Cyberlindnera jadinii [25] = test: Antifungal activity against Candida utilis ATCC 42402 in Henneberg medium at pH 3.1 after 2 days; format: functional; details: Williopsis jadinii, ATCC 42402, 48 h
MIC (Sclerotinia),MIC (Staphylococcus aureus),MIC (Cyberlindnera jadinii [1]),MIC (Bacillus subtilis),MIC (Penicillium crustosum),MIC [2],MIC (Saccharomyces cerevisiae [3]),MIC (Micrococcus luteus),MIC (Proteus vulgaris),MIC [4],MIC (Wickerhamomyces anomalus [5]),MIC (Pseudomonas aeruginosa),MIC (Aspergillus niger),MIC (Mucor mucedo),MIC (Escherichia coli),SMILES,further results
3.13 µg/mL,> 100 µg/mL,3.13 µg/mL,> 100 µg/mL,50 µg/mL,25 µg/mL,1.56 µg/mL,> 100 µg/mL,> 100 µg/mL,100 µg/mL,25 µg/mL,> 100 µg/mL,50 µg/mL,25 µg/mL,> 100 µg/mL,C=C1[C@@H](C)CC[C@@]2(C)[C@H]1CC=C(C=O)[C@]2(O)C=O,
1.56 µg/mL,> 100 µg/mL,1.56 µg/mL,> 100 µg/mL,25 µg/mL,6.25 µg/mL,0.78 µg/mL,> 100 µg/mL,> 100 µg/mL,12.5 µg/mL,1.56 µg/mL,> 100 µg/mL,25 µg/mL,6.25 µg/mL,> 100 µg/mL,CC1(C)CCC[C@]2(C)[C@@H](C=O)C(C=O)=CC[C@@H]12 [POLYGODIAL],MIC [6]: 25 µg/mL; MIC (Cyberlindnera jadinii [7]): > 25 µg/mL; MIC (Saccharomyces cerevisiae [8]): 1.56 µg/mL; MIC (Wickerhamomyces anomalus [9]): 1.56 µg/mL; Activity (Saccharomyces cerevisiae [10]): Active; Activity (Saccharomyces cerevisiae [11]): Active; MIC (Cyberlindnera jadinii [12]): 1.56 µg/mL; Activity (Saccharomyces cerevisiae [13]): Active; MIC [14]: > 25 µg/mL; MIC [15]: 6.25 µg/mL; MIC (Wickerhamomyces anomalus [16]): 1.56 µg/mL; MIC (Saccharomyces cerevisiae [17]): 0.78 µg/mL; MIC (Saccharomyces cerevisiae [18]): 0.2 µg/mL; MIC [19]: 6.25 µg/mL; MIC (Wickerhamomyces anomalus [20]): > 25 µg/mL; MIC (Cyberlindnera jadinii [21]): 3.13 µg/mL; Activity (Saccharomyces cerevisiae [22]): Active; MIC (Wickerhamomyces anomalus [23]): 6.25 µg/mL; MIC (Saccharomyces cerevisiae [24]): > 25 µg/mL; MIC (Cyberlindnera jadinii [25]): 0.78 µg/mL
3.13 µg/mL,> 100 µg/mL,3.13 µg/mL,> 100 µg/mL,50 µg/mL,12.5 µg/mL,3.13 µg/mL,> 100 µg/mL,> 100 µg/mL,100 µg/mL,12.5 µg/mL,> 100 µg/mL,50 µg/mL,25 µg/mL,> 100 µg/mL,CC1(C)CCC[C@@]2(C)[C@H]1CC=C(C=O)[C@]2(O)C=O [WARBURGANAL],
,,,,,,,,,,,,,,,"Cc1c2oc3c(C)ccc(C(=O)N[C@@H]4C(=O)N[C@H](C(C)C)C(=O)N5CCC[C@H]5C(=O)N(C)CC(=O)N(C)[C@@H](C(C)C)C(=O)O[C@@H]4C)c3nc-2c(C(=O)N[C@@H]2C(=O)N[C@H](C(C)C)C(=O)N3CCC[C@H]3C(=O)N(C)CC(=O)N(C)[C@@H](C(C)C)C(=O)O[C@@H]2C)c(N)c1=O (I: T[dV]P[Sar][NMeV] / II: T[dV]P[Sar][NMeV]; ester I:1-I:C, II:1-II:C; linker I:N-II:N via Actinocin(9to1))",Activity (Cyberlindnera jadinii [1]): inactive
